Laboratory results: the supplement of paper PMC13207355

Columns and labels:
Details in all cases: exposure time: 72 h
E31 [1] = patient-derived glioblastoma stem cells of proneural subtype; test: phenotypic distance (Euclidean, principal components) from DMSO controls (arbitrary units); higher = stronger morphological change
FT3469 [2] = normal neural stem cell line; test: as above
E28 [3] = patient-derived glioblastoma stem cells of classical subtype; test: as above
E34 [4] = patient-derived glioblastoma stem cells of proneural subtype; test: as above
E57 [5] = patient-derived glioblastoma stem cells of mesenchymal subtype; test: as above
E13 [6] = patient-derived glioblastoma stem cells of classical subtype; test: as above
E21 [7] = patient-derived glioblastoma stem cells of mesenchymal subtype; test: as above
E31 [8] = test: surviving fraction (nuclei count normalised to DMSO); higher = more cells surviving (less toxic)
FT3469 [9] = test: as above
E28 [10] = test: as above
E34 [11] = test: as above
E57 [12] = test: as above
E13 [13] = test: as above
E21 [14] = test: as above
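Wherever phenotypic distance (Euclidean, principal components) from DMSO controls is given: cell Painting imaging in 384-well plates, CellProfiler features reduced to at least 20 principal components, Euclidean distance versus same-plate DMSO vehicle wells (0.1% v/v), median over six images per well.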
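Wherever surviving fraction (nuclei count normalised to DMSO) is given: nuclei counted by high-content imaging of Hoechst-stained cells in laminin-coated 384-well plates, relative to 0.1% DMSO vehicle wells, with staurosporine as cell-death control.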

Clc1ccc(C(Cn2ccnc2)OCc2ccsc2Cl)c(Cl)c1 (stereo not drawn) [Tioconazole]
Details	phenotypic distance	surviving fraction
E13 [6], 4.1 nM	0.434	–
E13 [6], 12.3 nM	0.591	–
E13 [6], 37 nM	0.952	–
E13 [6], 111.1 nM	0.719	–
E13 [6], 333.3 nM	0.807	–
E13 [6], 1000 nM	0.71	–
E13 [6], 3000 nM	0.892	–
E13 [13], 4.1 nM	–	0.996
E13 [13], 12.3 nM	–	0.959
E13 [13], 37 nM	–	1.02
E13 [13], 111.1 nM	–	0.98
E13 [13], 333.3 nM	–	0.992
E13 [13], 1000 nM	–	1.01
E13 [13], 3000 nM	–	0.857
E21 [7], 4.1 nM	0.639	–
E21 [7], 12.3 nM	0.48	–
E21 [7], 37 nM	0.312	–
E21 [7], 111.1 nM	0.6	–
E21 [7], 333.3 nM	0.27	–
E21 [7], 1000 nM	0.663	–
E21 [7], 3000 nM	1.33	–
E21 [14], 4.1 nM	–	1.05
E21 [14], 12.3 nM	–	1.01
E21 [14], 37 nM	–	0.998
E21 [14], 111.1 nM	–	1.03
E21 [14], 333.3 nM	–	1
E21 [14], 1000 nM	–	0.876
E21 [14], 3000 nM	–	0.887
E28 [3], 4.1 nM	0.718	–
E28 [3], 12.3 nM	0.644	–
E28 [3], 37 nM	0.417	–
E28 [3], 111.1 nM	0.495	–
E28 [3], 333.3 nM	0.688	–
E28 [3], 1000 nM	0.954	–
E28 [3], 3000 nM	0.695	–
E28 [10], 4.1 nM	–	1.06
E28 [10], 12.3 nM	–	1.11
E28 [10], 37 nM	–	1.05
E28 [10], 111.1 nM	–	1.13
E28 [10], 333.3 nM	–	1.03
E28 [10], 1000 nM	–	1.02
E28 [10], 3000 nM	–	0.843
E31 [1], 4.1 nM	0.731	–
E31 [1], 12.3 nM	0.483	–
E31 [1], 37 nM	0.639	–
E31 [1], 111.1 nM	0.611	–
E31 [1], 333.3 nM	0.715	–
E31 [1], 1000 nM	0.918	–
E31 [1], 3000 nM	1.46	–
E31 [8], 4.1 nM	–	0.857
E31 [8], 12.3 nM	–	0.993
E31 [8], 37 nM	–	1.08
E31 [8], 111.1 nM	–	1.11
E31 [8], 333.3 nM	–	0.972
E31 [8], 1000 nM	–	1.02
E31 [8], 3000 nM	–	0.969
E34 [4], 4.1 nM	0.558	–
E34 [4], 12.3 nM	0.535	–
E34 [4], 37 nM	0.702	–
E34 [4], 111.1 nM	0.614	–
E34 [4], 333.3 nM	0.634	–
E34 [4], 1000 nM	0.943	–
E34 [4], 3000 nM	1.08	–
E34 [11], 4.1 nM	–	1.14
E34 [11], 12.3 nM	–	0.871
E34 [11], 37 nM	–	0.929
E34 [11], 111.1 nM	–	0.959
E34 [11], 333.3 nM	–	0.947
E34 [11], 1000 nM	–	0.894
E34 [11], 3000 nM	–	0.776
E57 [5], 4.1 nM	0.709	–
E57 [5], 12.3 nM	0.457	–
E57 [5], 37 nM	0.46	–
E57 [5], 111.1 nM	0.302	–
E57 [5], 333.3 nM	0.722	–
E57 [5], 1000 nM	0.606	–
E57 [5], 3000 nM	1.69	–
E57 [12], 4.1 nM	–	0.962
E57 [12], 12.3 nM	–	0.998
E57 [12], 37 nM	–	0.997
E57 [12], 111.1 nM	–	1.04
E57 [12], 333.3 nM	–	0.973
E57 [12], 1000 nM	–	0.922
E57 [12], 3000 nM	–	0.988
FT3469 [2], 4.1 nM	1.14	–
FT3469 [2], 12.3 nM	1.57	–
FT3469 [2], 37 nM	0.375	–
FT3469 [2], 111.1 nM	0.556	–
FT3469 [2], 333.3 nM	0.563	–
FT3469 [2], 1000 nM	0.69	–
FT3469 [2], 3000 nM	1.37	–
FT3469 [9], 4.1 nM	–	0.871
FT3469 [9], 12.3 nM	–	1.12
FT3469 [9], 37 nM	–	0.948
FT3469 [9], 111.1 nM	–	1.08
FT3469 [9], 333.3 nM	–	1.01
FT3469 [9], 1000 nM	–	0.829
FT3469 [9], 3000 nM	–	0.787
